According to patent publication US12077513B2, “Process route of compound of formula (IV), crystal form and preparation method therefor” (SHANDONG DANHONG PHARMACEUTICAL CO., LTD., priority 2018, dated 2024):

Experiments:
[1] = Solid stability test, crystal form characterized by XRPD; assay type: physicochemical
Method: An electronic balance was used to accurately weigh 60 mg sample of crystal form B of compound (IV) (3 samples in parallel for each stability test condition). The samples were placed in a dry and clean 5 mL beaker and spread into a thin layer. The aluminum foil was pierced with holes and placed on the beaker, fixed with rubber bands. The beaker was placed in tbc environment of various stability test conditions and remained for sampling at investigation time. The samples were investigated at 60° C. (5 days, 10 days), 25° C./92.5% RH (5 days, 10 days), 40° C./75% RH (one month, two months, three months), 60° C./75% RH (one month, two months) and light (10 days) conditions. X-ray powder diffraction (XRPD) was used to characterize the solid under various conditions.

[2] = target: Human recombinant VAP-1/SSAO enzyme (Homo sapiens (Human), UniProt Q16853); assay: Human VAP-1 enzyme activity assay (Amplex Red Monoamine Oxidase Kit); assay type: biochemical; conditions: for Inhibitory activity against human recombinant VAP-1/SSAO enzyme (conclusion in words): in vitro
Method: Human VAP-1 Enzyme Activity Assay:
Amplex® Red Monoamine Oxidase Kit (Invitrogen #A12214) was used to determine the inhibitory effects of the sample on VAP-1 enzyme activity. 100 nL Test compound (the solvent was DMSO) that had been gradiently diluted was added to a 384-well plate. 25 μL 10 nM VAP-1 enzyme solution was added, and the solution was incubated at room temperature for 30 minutes. The substrate mixture which had been added […] (200 μM Amplex Red, 1 U/mL HRP, 1 mM Benzylamine) was incubated at room temperature for 60 minutes. After the incubation, the fluorescence signal was read with a microplate reader Envision (excitation light wavelength 530-560 nm, emission light wavelength 590 nm). The fluorescence signal value after removing the background signal was analyzed with Prism software. The IC50 of the sample to the VAP-1 enzyme was calculated.

[3] = target: VAP-1/SSAO cell (Homo sapiens (Human), UniProt Q16853); assay: VAP-1 cell activity assay (HUVEC or CHO cells transfected with VAP-1/pCDNA (3.1) plasmid, Amplex Red); assay type: cell-based; conditions: for Inhibitory activity against VAP-1/SSAO cells (conclusion in words): in vitro
Method: Amplex® Red Monoamine Oxidase Kit (Invitrogen #A12214) was used to determine the inhibitory effect of the sample on VAP-1 enzyme activity.
The HUVEC or CHO cells were plated onto a 6-well plate at a density of 0.8M/well, placed in a 37° C., 5% CO2 incubator for 24 hours, and then transfected with Lipo2000 reagent and VAP-1/pCDNA (3.1) plasmid. The medium was changed after 5 h (Lipo2000 is toxic to cells). After 24 h, the cells digested and plated into a 384-well plate at a density of 25 μl, 10000 cells/well, 6-7 h, and the cell medium was changed to the medium without FBS and the cell plate was placed in a 37° C. 5% CO2 incubator overnight.
• 1) Compound dilution: 4-fold serial dilution with 100% DMSO and diluted at 10 points. The initial concentration of the test compound was 0.5 mM (final concentration was […]); ECHO was used to transfer 100 nL of the compound solution to a 384-well cell detection plate. Negative control well: 100 nL DMSO; background control well: 100 nL DMSO+25 μL medium. • 2) Reaction was kept for 30 minutes at room temperature and protected from light. • 3) Amplex Red reagent+HRP+benzylamine substrate working solution preparation: • Amplex Red reagent+HRP+benzylamine substrate working solution (200 μM Amplex Red reagent+1 U/mL HRP+1 mM benzylamine): 45 μL of 20 mM Amplex Red reagent mother liquor, 22.5 μL of 200 U/mL horseradish peroxidase (HRP) mother liquor and 45 μL of 100 mM benzylamine were added to 4.3875 mL of 1× reaction buffer. • 4) After 30 minutes, 25 μL of the substrate working solution was added to a 384-well plate. […]

[4] = listed as crystal form B of the compound of formula (IV)

VAP-1/SSAO cell, sequence (Q16853 whole entry): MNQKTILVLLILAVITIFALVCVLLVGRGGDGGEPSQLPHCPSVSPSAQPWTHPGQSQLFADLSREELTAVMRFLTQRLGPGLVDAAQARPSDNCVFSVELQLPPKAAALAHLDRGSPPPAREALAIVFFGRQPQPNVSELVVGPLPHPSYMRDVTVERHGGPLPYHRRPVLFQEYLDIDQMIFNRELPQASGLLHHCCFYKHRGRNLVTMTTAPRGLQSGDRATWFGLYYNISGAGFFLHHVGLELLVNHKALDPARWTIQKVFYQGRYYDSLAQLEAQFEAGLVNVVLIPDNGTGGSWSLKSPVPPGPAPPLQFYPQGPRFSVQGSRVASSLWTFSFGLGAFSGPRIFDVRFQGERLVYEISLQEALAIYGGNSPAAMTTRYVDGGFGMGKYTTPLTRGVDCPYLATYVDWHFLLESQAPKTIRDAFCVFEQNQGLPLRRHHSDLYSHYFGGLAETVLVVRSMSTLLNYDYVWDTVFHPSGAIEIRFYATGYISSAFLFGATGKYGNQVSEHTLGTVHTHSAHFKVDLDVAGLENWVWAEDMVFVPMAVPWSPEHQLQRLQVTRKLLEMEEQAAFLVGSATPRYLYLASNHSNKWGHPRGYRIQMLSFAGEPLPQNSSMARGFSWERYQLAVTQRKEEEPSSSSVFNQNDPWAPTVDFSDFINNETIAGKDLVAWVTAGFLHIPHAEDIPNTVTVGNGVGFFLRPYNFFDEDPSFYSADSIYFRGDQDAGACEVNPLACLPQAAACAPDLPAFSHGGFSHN
Human recombinant VAP-1/SSAO enzyme, sequence (Q16853 whole entry): as above

CC(C)n1nc(-c2ccc(OC/C(=C/F)CN)cc2)nc1C1CC1 [Crystal form A]
Stability (general statement in words) [1]: good stability

CC(C)n1nc(-c2ccc(OC/C(=C/F)CN)cc2)nc1C1CC1
IC50 ([2]; 30 min preincubation, benzylamine substrate, read-out: Human recombinant VAP-1/SSAO enzyme inhibitory activity IC50): 0.71 ± 0.21 nM | Inhibitory activity against human recombinant VAP-1/SSAO enzyme (conclusion in words) [2, 4]: strong inhibitory activity | IC50 ([3]; VAP-1 transfected HUVEC or CHO cells, read-out: VAP-1/SSAO cell activity assay test IC50): 2.2 ± 1.49 nM | Inhibitory activity against VAP-1/SSAO cells (conclusion in words) [3, 4]: strong inhibitory activity

CC(C)n1nc(-c2ccc(OC/C(=C/F)CN)cc2)nc1C1CC1 [Compound of formula (IV)]
Inhibitory activity against human recombinant VAP-1/SSAO enzyme (conclusion in words) [2]: strong inhibitory activity | Inhibitory activity against VAP-1/SSAO cells (conclusion in words) [3]: strong inhibitory activity
